In US7626031B2, “Substituted 3-(diarylmethylene)indolin-2-ones and methods of their use” (Symphony Evolution, Inc., priority 2002, dated 2009):
pIC50: −log10 of the molar value.

Key:
Fyn = Fyn (Homo sapiens, UniProt P06241); assay: Kinase assay, Fyn; type: biochemical
Description: (§1) Kinase activity and compound inhibition are investigated using one or more assay formats. The ATP concentrations for each assay are selected to be close to the Michaelis-Menten constant (KM) for each individual kinase. Dose-response experiments are performed at 10 different inhibitor concentrations in a 384-well plate format. […] Exemplary kinase assays are described below. KDR Assay

EphA2 = EphA2 (Homo sapiens, UniProt P29317); assay: Kinase assay, EphA2 (33P-ATP incorporation or luciferase-coupled ATP consumption); type: biochemical
Chain of EphA2 (P29317 24-976, species assumed): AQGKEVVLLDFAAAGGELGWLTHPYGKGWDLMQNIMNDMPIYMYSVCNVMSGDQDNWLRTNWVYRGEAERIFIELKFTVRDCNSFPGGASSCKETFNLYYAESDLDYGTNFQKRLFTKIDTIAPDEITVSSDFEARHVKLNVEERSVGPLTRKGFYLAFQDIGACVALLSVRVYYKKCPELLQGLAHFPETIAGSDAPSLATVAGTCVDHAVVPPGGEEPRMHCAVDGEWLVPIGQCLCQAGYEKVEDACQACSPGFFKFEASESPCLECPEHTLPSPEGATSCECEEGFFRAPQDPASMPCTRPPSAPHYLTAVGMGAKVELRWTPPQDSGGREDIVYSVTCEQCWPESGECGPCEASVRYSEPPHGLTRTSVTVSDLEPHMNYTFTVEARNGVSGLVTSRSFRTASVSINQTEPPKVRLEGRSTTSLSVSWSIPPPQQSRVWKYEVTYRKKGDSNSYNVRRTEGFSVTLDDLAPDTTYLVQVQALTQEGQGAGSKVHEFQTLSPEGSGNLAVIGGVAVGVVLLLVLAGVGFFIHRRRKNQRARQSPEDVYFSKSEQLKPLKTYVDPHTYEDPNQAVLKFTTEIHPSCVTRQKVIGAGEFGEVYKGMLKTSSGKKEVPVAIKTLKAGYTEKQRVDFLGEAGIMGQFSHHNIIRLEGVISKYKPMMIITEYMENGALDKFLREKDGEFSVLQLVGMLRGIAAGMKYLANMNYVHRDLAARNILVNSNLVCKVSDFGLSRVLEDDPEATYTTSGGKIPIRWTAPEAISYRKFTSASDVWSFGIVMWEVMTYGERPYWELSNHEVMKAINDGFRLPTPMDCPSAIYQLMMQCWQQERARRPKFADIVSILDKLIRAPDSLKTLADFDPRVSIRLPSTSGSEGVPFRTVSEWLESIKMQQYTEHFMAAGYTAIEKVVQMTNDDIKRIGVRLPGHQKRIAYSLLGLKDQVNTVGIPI
Description: (§2) Kinase assays were performed by measurement of incorporation of γ-^33P ATP into immobilized myelin basic protein (MBP). […] Plates were washed 3× with 100 μl TBS. […] Compound dilutions were performed in DMSO and added to assay wells to a final DMSO concentration of 1%. Each data point was measured in duplicate, and at least two duplicate assays were performed for each individual compound determination. Enzyme was added to final concentrations of 10 nM or 20 nM, for example. A mixture of unlabeled ATP and γ-^33P ATP was added to start the reaction (2×10^6 cpm of γ-^33P ATP per well (3000 Ci/mmole) and either 10 μM or 30 μM unlabeled ATP, typically. The reactions were carried out for 1 hour at room temperature with shaking. Plates were washed 7× with TBS, followed by the addition of 50 μl/well scintillation fluid (Wallac). Plates were read using a Wallac Trilux counter. This is only one format of such assays, various other formats are possible, as known to one of ordinary skill in the art.
(§3) Tyrosine kinase activity is determined by 1) measurement of kinase-dependent ATP consumption by in the presence of a generic substrate such as, polyglutamic acid, tyrosine, 4:1 (pEY), by luciferase/luciferin-mediated chemiluminescence or; 2) incorporation of radioactive phosphate derived from ^33P-ATP into a generic substrate which has been adsorbed onto the well surface of polystyrene microtiter plates. Phosphorylated substrate products are quantified by scintillation spectrometry.
as §1

EGFR = EGFR (Homo sapiens, UniProt P00533); assay: Kinase assay, EGFR (33P-ATP incorporation or luciferase-coupled ATP consumption); type: biochemical
Chain of EGFR (P00533 25-1210, species assumed): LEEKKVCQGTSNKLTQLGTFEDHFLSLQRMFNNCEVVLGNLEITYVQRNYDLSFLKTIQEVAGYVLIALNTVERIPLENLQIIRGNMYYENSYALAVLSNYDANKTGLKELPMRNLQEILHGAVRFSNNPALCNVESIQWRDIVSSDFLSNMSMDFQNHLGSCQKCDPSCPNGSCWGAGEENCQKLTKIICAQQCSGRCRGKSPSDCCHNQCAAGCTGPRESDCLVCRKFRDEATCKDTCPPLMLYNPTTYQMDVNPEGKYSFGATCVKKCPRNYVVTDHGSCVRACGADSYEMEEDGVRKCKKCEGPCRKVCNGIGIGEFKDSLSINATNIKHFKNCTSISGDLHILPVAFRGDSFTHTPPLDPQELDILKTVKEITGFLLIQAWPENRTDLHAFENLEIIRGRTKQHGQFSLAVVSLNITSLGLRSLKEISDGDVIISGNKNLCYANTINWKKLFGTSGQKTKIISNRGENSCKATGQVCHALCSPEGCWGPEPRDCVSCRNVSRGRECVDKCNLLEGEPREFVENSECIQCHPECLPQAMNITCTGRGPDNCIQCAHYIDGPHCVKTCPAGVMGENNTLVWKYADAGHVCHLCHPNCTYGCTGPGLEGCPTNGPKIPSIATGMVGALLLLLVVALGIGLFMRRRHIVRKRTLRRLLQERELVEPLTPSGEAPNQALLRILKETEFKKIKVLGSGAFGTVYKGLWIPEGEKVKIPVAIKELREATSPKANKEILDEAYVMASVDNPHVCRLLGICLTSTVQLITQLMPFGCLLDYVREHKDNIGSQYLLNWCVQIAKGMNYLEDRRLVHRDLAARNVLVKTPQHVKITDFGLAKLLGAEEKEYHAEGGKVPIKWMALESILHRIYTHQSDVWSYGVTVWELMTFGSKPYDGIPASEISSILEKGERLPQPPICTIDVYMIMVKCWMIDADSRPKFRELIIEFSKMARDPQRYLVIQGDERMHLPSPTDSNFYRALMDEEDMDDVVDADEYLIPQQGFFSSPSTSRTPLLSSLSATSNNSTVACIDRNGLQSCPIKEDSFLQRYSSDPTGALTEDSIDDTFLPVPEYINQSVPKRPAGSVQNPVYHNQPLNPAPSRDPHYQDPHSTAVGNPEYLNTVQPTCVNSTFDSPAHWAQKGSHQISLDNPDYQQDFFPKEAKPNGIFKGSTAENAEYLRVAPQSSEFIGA
Description: as §2, §3, §1

IRK = IRK (Homo sapiens, UniProt P06213); assay: Kinase assay, IRK; type: biochemical
Description: as §1

PDGFR alpha = PDGFR alpha (Homo sapiens, UniProt P16234); assay: Kinase assay, PDGFR alpha (33P-ATP incorporation or luciferase-coupled ATP consumption); type: biochemical; conditions: read-out: PDGF-R-A IC50
Chain of PDGFR alpha (P16234 24-1089): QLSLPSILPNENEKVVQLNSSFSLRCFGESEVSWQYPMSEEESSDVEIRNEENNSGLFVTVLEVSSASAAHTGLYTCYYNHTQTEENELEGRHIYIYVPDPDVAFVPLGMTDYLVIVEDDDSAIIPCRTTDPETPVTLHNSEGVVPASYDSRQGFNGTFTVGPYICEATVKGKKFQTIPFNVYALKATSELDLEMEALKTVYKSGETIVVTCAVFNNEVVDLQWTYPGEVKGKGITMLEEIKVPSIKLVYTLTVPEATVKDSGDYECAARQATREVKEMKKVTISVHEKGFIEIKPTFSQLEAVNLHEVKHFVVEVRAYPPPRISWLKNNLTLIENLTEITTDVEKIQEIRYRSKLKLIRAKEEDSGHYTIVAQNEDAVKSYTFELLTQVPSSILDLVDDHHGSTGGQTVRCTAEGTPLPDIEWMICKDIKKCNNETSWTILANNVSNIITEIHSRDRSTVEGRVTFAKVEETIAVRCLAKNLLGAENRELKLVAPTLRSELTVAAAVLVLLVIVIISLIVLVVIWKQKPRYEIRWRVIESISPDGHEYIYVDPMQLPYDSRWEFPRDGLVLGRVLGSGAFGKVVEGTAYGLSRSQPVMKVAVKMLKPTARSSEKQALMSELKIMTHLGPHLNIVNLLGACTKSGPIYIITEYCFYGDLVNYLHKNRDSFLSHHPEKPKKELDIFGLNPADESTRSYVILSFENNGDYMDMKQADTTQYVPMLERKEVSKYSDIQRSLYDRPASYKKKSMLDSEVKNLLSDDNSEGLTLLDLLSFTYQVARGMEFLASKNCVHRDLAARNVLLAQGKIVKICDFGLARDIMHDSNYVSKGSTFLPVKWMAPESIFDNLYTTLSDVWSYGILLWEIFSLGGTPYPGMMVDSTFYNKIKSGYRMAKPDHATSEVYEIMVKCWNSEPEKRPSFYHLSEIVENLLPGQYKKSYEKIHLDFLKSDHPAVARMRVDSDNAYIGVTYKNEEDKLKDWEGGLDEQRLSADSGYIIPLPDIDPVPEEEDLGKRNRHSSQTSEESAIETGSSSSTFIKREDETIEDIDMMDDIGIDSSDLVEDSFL
Description: as §2, §3, §1

FGFR1 = FGFR1 (Homo sapiens, UniProt P11362); assay: Kinase assay, FGFR1 (33P-ATP incorporation or luciferase-coupled ATP consumption); type: biochemical
Chain of FGFR1 (P11362 22-822, species assumed): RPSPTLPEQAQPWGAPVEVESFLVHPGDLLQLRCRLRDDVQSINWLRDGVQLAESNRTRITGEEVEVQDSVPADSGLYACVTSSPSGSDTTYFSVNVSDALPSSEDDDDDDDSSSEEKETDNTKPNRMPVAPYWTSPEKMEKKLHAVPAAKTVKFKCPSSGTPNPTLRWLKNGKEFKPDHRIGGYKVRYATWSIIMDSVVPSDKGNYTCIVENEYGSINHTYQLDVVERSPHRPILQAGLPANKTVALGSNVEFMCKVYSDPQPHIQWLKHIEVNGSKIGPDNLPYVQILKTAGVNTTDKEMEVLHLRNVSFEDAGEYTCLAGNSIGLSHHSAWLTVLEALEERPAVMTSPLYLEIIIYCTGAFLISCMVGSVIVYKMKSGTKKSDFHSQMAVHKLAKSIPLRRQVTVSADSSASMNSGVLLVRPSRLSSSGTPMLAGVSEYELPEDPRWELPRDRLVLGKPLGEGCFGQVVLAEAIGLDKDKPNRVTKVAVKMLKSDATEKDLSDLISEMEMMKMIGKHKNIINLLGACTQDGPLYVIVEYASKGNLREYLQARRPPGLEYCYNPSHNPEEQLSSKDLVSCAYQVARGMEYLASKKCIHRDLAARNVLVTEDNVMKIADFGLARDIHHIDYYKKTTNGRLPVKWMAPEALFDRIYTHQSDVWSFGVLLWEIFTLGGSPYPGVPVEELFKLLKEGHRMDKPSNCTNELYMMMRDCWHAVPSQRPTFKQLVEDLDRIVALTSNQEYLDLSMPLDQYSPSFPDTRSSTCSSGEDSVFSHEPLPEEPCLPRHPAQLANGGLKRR
Description: as §2, §3, §1

[1] = molecular target: T1, KDR (baculovirus expressed human KDR kinase domain D807-V1356) (Homo sapiens, UniProt P35968); assay: biochemical
T1 construct: human KDR kinase domain D807-V1356; host or cells: baculovirus expression system
T1 sequence (P35968 807-1356): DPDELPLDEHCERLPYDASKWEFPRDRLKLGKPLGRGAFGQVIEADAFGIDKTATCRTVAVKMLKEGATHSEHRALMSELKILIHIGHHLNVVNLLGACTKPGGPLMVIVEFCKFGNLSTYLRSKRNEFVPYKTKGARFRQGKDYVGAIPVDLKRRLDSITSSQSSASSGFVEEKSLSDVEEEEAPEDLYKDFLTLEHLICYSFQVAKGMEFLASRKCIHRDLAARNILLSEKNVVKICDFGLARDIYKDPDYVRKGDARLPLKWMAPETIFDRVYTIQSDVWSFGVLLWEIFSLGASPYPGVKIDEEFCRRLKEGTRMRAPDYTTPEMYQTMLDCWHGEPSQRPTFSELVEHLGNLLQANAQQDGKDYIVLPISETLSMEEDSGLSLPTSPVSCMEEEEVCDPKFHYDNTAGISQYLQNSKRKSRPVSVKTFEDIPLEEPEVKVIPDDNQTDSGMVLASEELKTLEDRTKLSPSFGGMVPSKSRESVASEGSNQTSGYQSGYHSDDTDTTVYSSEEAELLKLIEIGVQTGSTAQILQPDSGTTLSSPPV
Description: as §1
KDR biochemical activity was assessed using a Luciferase-Coupled Chemiluminescent Kinase assay (LCCA) format. Kinase activity was measured as the percent ATP remaining following the kinase reaction. Remaining ATP was detected by luciferase-luciferin-coupled chemiluminescence. […] The mixture is incubated at ambient temperature for 4 hours after which 20 uL luciferase-luciferin mix is added and the chemiluminescent signal read using a Wallac Victor^2 reader.

Chain of Fyn (P06241 whole entry, species assumed): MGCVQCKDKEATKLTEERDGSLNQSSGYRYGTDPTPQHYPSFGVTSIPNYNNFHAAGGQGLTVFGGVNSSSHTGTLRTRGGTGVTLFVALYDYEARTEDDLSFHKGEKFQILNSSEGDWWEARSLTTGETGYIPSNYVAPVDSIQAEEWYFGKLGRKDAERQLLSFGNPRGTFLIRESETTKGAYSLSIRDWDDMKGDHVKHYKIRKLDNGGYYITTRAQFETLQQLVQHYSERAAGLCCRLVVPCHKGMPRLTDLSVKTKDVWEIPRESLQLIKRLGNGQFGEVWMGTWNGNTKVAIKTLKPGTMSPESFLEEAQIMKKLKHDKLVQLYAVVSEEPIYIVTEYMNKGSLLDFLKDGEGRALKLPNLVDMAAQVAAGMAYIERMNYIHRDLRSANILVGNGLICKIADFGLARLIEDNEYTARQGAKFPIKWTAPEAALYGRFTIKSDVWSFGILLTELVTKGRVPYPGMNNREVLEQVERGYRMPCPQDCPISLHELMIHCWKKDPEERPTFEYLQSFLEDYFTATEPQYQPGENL

Compound | pIC50 (Fyn) | pIC50 (EphA2) | pIC50 (EGFR) | pIC50 (IRK) | pIC50 (PDGFR alpha) | pIC50 (FGFR1) | pIC50 [1]
CCN1CCCC(Nc2ccc3c(c2)/C(=C(\c2ccccc2)c2nc4cc(OC)ccc4[nH]2)C(=O)N3)C1 (stereo not shown) [Entry 2, (3Z)-5-[(1-ethylpiperidin-3-yl)amino]-3-[[5-(methyloxy)-1H-benzimidazol-2-yl](phenyl)methylidene]-1,3-dihydro-2H-indol-2-one] | 5.30 to 6.30 | 5.30 to 6.30 | 5.30 to 6.30 |  |  |  | 
CCN1CCC(Oc2ccc3c(c2)/C(=C(\c2ccccc2)c2nc4cc(OC)ccc4[nH]2)C(=O)N3)CC1 [Entry 14, (3Z)-5-[(1-ethytpiperidin-4-yl)oxy]-3-[[5-(methyloxy)-1H-benzimidazol-2-yl](phenyl)methylidene]-1,3-dihydro-2H-indol-2-one] | > 7.30 | 5.30 to 6.30 | 5.30 to 6.30 | 5.30 to 6.30 |  |  | 
CCN1CCC(Nc2ccc3c(c2)/C(=C(\c2ccc(F)c(C)c2)c2nc4ccccc4[nH]2)C(=O)N3)CC1 [Entry 52, (3Z)-3-[1H-benzimidazol-2-yl(4-fluoro-3-methylphenyl)methylidene]-5-{(1-ethylpiperidin-4-yl)amino]-1,3-dihydro-2H-indol-2-one] | > 7.30 | 5.30 to 6.30 |  | 5.30 to 6.30 | > 7.30 | 6.30 to 7.30 | > 7.30
CCN1CCC(Nc2ccc3c(c2)/C(=C(\c2ccccc2)c2nc4cc(Cl)ccc4[nH]2)C(=O)N3)CC1 [Entry 55, (3Z)-3-[(5-chloro-1H-benzimidazol-2-yl)(phenyl)methylidene]-5-[(1-ethylpiperidin-4-yl)amino]-1,3-dihydro-2H-indol-2-one] | > 7.30 | 5.30 to 6.30 |  | 5.30 to 6.30 | > 7.30 | 6.30 to 7.30 | > 7.30
CCN1CCC(Nc2ccc3c(c2)/C(=C(\c2cc(F)cc(F)c2)c2nc4cc(Cl)ccc4[nH]2)C(=O)N3)CC1 [Entry 56, (3Z)-3-[(5-chloro-1H-benzimidazol-2-yl) (3,5-dilfuorophenyl)methylidene]-5-[(1-ethylpiperidin-4-yl)amino]-1,3-dihydro-2H-indol-2-one] | > 7.30 | 5.30 to 6.30 |  | < 5.30 | > 7.30 | 6.30 to 7.30 | > 7.30
CCCc1ccc(/C(=C2/C(=O)Nc3ccc(NC4CCN(CC)CC4)cc32)c2ncc[nH]2)cc1 [Entry 59, (3Z)-5-[(1-ethylpiperidin-4-yl)amino]-3-[1H-imidazol-2-yl(4-propylphenyl)methylidene]-1,3-dihydro-2H-indol-2-one] | > 7.30 | 5.30 to 6.30 | 6.30 to 7.30 | 5.30 to 6.30 | > 7.30 | > 7.30 | > 7.30
CCN1CCC(Nc2ccc3c(c2)/C(=C(/c2cc(F)cc(F)c2)c2nc4cc(F)ccc4[nH]2)C(=O)N3)CC1 [Entry 61, (3E)-3-[(3,5-difluorophenyl)(5-fluoro-1H-benzimidazol-2-yl)methylidene]-5-[(1-ethylpiperidin-4-yl)amino]-1,3-dihydro-2H-indol-2-one] | > 7.30 | < 5.30 | < 5.30 | < 5.30 | > 7.30 | 6.30 to 7.30 | > 7.30
CCN1CCC(Nc2ccc3c(c2)/C(=C(\c2cc(F)cc(F)c2)c2nc4cc(F)ccc4[nH]2)C(=O)N3)CC1 [Entry 62, (3Z)-3-[(3,5-difluorophenyl)(5-fluoro-1H-benzimidazol-2-yl)methylidene]-5-[(1-ethylpiperidin-4-yl)amino]-1,3-dihydro-2H-indol-2-one] | > 7.30 | 5.30 to 6.30 | 6.30 to 7.30 | < 5.30 | > 7.30 | > 7.30 | > 7.30
COCCN1CCC(Nc2ccc3c(c2)/C(=C(\c2ccc(C)c(F)c2)c2ncc[nH]2)C(=O)N3)CC1 [Entry 63, (3Z)-3-[(3-fluoro-4-methylphenyl)(1H-imidazol-2-yl)methylidene]-5-({1-[2-(methyloxy)ethyl]piperidin-4-yl}amino)-1,3-dihydro-2H-indol-2-one] | > 7.30 | 6.30 to 7.30 | 6.30 to 7.30 | 5.30 to 6.30 | > 7.30 | > 7.30 | > 7.30
CCN1CCC(Nc2ccc3c(c2)/C(=C(\c2ccc(C(F)(F)F)nc2)c2ncc[nH]2)C(=O)N3)CC1 [Entry 68] | 6.30 to 7.30 | 5.30 to 6.30 | < 5.30 | < 5.30 | > 7.30 | 6.30 to 7.30 | 6.30 to 7.30
COCCN1CCC(Nc2ccc3c(c2)/C(=C(\c2ccc(C)cc2)c2ncc[nH]2)C(=O)N3)CC1 [Entry 69] | > 7.30 | 6.30 to 7.30 | 6.30 to 7.30 | 5.30 to 6.30 | > 7.30 | > 7.30 | > 7.30
CS(=O)(=O)N1CCC(Nc2ccc3c(c2)/C(=C(\c2cccc(F)c2)c2ncc[nH]2)C(=O)N3)CC1 [Entry 93, (3Z)-3-[(3-fluorophenyl)(1H-imidazol-2-yl)methylidene]-5-{[1-(methylsulfonyl)piperidin-4-yl]amino}-1,3-dihydro-2H-indol-2-one] | < 5.30 | < 5.30 | < 5.30 | 5.30 to 6.30 |  | 6.30 to 7.30 | 6.30 to 7.30
CCCc1ccc(/C(=C2/C(=O)Nc3ccc(NC4CCN(CCOC)CC4)cc32)c2ncc[nH]2)cc1 [Entry 94, (3Z)-3-[1H-imidazol-2-yl(4-propylphenyl)methylidene]-5-({1-[2-(methyloxy)ethyl]piperidin-4-yl}amino)-1,3-dihydro-2H-indol-2-one] | > 7.30 | 5.30 to 6.30 | 6.30 to 7.30 | 5.30 to 6.30 |  | > 7.30 | > 7.30
CCN1CCC(Nc2ccc3c(c2)/C(=C(\c2cccc(F)c2)c2nc(-c4ccccc4)c[nH]2)C(=O)N3)CC1 [Entry 95, (3Z)-5-[(1-ethylpiperidin-4-yl)amino]-3-[(3-fluorophenyl)(4-phenyl-1H-imidazol-2-yl)methylidene]-1,3-dihydro-2H-indol-2-one] | > 7.30 | 5.30 to 6.30 | 6.30 to 7.30 | 5.30 to 6.30 |  | > 7.30 | > 7.30
COCCN1CCC(Nc2ccc3c(c2)/C(=C(\c2cccc(F)c2)c2nc(-c4ccccc4)c[nH]2)C(=O)N3)CC1 [Entry 96, (3Z)-3-[(3-fluorophenyl)(4-phenyl-1H-imidazol-2-yl)methylidene]-5-({1-[2-(methyloxy)ethyl]piperidin-4-yl}amino)-1,3-dihydro-2H-indol-2-one] | > 7.30 | 5.30 to 6.30 | 6.30 to 7.30 | 5.30 to 6.30 |  | > 7.30 | > 7.30
COCCN1CCC(Nc2ccc3c(c2)/C(=C(\c2ccc(C(F)(F)F)nc2)c2ncc[nH]2)C(=O)N3)CC1 [Entry 98] | 6.30 to 7.30 | 5.30 to 6.30 | < 5.30 | < 5.30 |  | 6.30 to 7.30 | 6.30 to 7.30
CCN1CCC(Nc2ccc3c(c2)/C(=C(\c2cccc(F)c2)c2ncn[nH]2)C(=O)N3)CC1 [Entry 99, (3Z)-5-[(1-ethylpiperidin-4-yl)amino]-3-[(3-fluorophenyl)(1H-1,2,4-triazol-5-yl)methylidene]-1,3-dihydro-2H-indol-2-one] | < 5.30 | < 5.30 | < 5.30 | < 5.30 |  | 6.30 to 7.30 | 6.30 to 7.30
